Laboratory results taken from ChEMBL document CHEMBL1143474, “Synthesis and pharmacological evaluation of Tic-hydantoin derivatives as selective sigma1 ligands. Part 1” (Bioorg Med Chem Lett, 2005).

Columns and labels:
Sigma 2 receptor = test: Inhibitory concentration against opioid receptor sigma 2 of rat cerebral cortex using [3H]DTG upon incubation for 120 minutes at 22 degree C; format: tissue-based
[1] = target: Sigma non-opioid intracellular receptor 1 (Cavia porcellus) (UniProt Q60492); test: Inhibitory concentration against opioid receptor sigma 1 of guinea pig cerebral cortex using [3H](+)-pentazocine upon incubation for 150 minutes at 22 degree C
Sequence of Sigma non-opioid intracellular receptor 1 (Cavia porcellus) (Q60492 whole entry, looked up): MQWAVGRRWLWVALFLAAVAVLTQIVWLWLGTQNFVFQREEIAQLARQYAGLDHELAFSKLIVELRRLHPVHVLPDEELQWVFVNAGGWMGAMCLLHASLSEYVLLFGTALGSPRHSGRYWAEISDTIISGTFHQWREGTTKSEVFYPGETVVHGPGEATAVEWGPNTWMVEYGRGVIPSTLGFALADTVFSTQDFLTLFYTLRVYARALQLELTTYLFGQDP

For `O=C1[C@@H]2Cc3ccccc3CN2C(=S)N1CCN1CCCCC1`, the IC50 (Sigma 2 receptor) was 0.507 µM.

`O=C1N(CCN2CCCCC2)C[C@@H]2Cc3ccccc3CN12` gave an IC50 (Sigma 2 receptor) greater than 1 µM.

`O=C1[C@@H]2Cc3ccccc3CN2C(=O)N1CCCN1CCCCC1` gave an IC50 [1] of 0.0215 µM and an IC50 (Sigma 2 receptor) greater than 1 µM.

`O=C1[C@@H]2Cc3ccccc3CN2C(=O)N1CCN1CCCCC1` gave an IC50 [1] of 0.016 µM and an IC50 (Sigma 2 receptor) greater than 1 µM.

In the case of `O=C1[C@H]2Cc3ccccc3CN2C(=O)N1CCN1CCCCC1`, the IC50 (Sigma 2 receptor) is reported as greater than 1 µM.

With `O=C1[C@@H]2Cc3ccccc3N2C(=O)N1CCCN1CCCCC1` the IC50 (Sigma 2 receptor) was greater than 1 µM.

`c1ccc2c(c1)C[C@H]1CN(CCN3CCCCC3)CN1C2` gave an IC50 (Sigma 2 receptor) greater than 1 µM.
